Assay results from US20180110754A1, “CENICRIVIROC FOR THE TREATMENT OF FIBROSIS” (Tobira Therapeutics, Inc., priority 2015, published 2018).

Key:
[1] = test system: MCP-1, sCD14, hs-CRP, IL-6, D-dimer, fibrinogen; test: Study 202: biomarkers of inflammation and immune function; assay type: in vivo, human; conditions: EFV 600 mg
Procedure: As an exploratory analysis, levels of inflammation biomarkers MCP-1, sCD14, high sensitivity C-reactive protein [hs-CRP], interleukin-6 [IL-6], D-dimer, and fibrinogen) were measured. Baseline values and changes from baseline at Week 24 and Week 48 of MCP-1, sCD14, hs-CRP, IL-6, D-dimer, and fibrinogen are summarized in Table 25.
The sCD14 samples were originally analyzed in 2 separate batches: Batch 1 included samples leading up to the Week 24 primary analysis and Batch 2 included Week 32 and Week 48 (end of study) samples. A repeat analysis of archived samples all analyzed in one batch was conducted for consistency in analysis across time points. To control for the effects of covariates, a linear mixed-model repeated-measures analysis was conducted on the changes from baseline in sCD14 (analysis dated September 2013).

[2] = Description: Subjects with a history of HIV-2, hepatitis B and/or C, cirrhosis of the liver or any known active or chronic active liver disease were excluded from the study.
Most AEs were mild or moderate (Grade 1 or Grade 2). […] None of the Grade ≥3 AEs (preferred terms) were reported in more than 1 subject.

SMILES: O=C1Nc2ccc(Cl)cc2[C@@](C#CC2CC2)(C(F)(F)F)O1 [EFV, efavirenz, reference compound]
- D-dimer baseline value, mean [1]: 163 ng/mL
- D-dimer baseline value, median [1]: 150 ng/mL
- D-dimer change from baseline at Week 24, mean [1]: -53 ng/mL
- D-dimer change from baseline at Week 24, median [1]: -26 ng/mL
- D-dimer change from baseline at Week 48, mean [1]: -34 ng/mL
- D-dimer change from baseline at Week 48, median [1]: 0.0 ng/mL
- Fibrinogen baseline value, mean [1]: 258 mg/dL
- Fibrinogen baseline value, median [1]: 245 mg/dL
- Fibrinogen change from baseline at Week 24, mean [1]: -28 mg/dL
- Fibrinogen change from baseline at Week 24, median [1]: -31 mg/dL
- Fibrinogen change from baseline at Week 48, mean [1]: -30 mg/dL
- Fibrinogen change from baseline at Week 48, median [1]: -22 mg/dL
- IL-6 baseline value, mean [1]: 13.81 pg/mL
- IL-6 baseline value, median [1]: 1.90 pg/mL
- IL-6 change from baseline at Week 24, mean [1]: -8.72 pg/mL
- IL-6 change from baseline at Week 24, median [1]: 0.00 pg/mL
- IL-6 change from baseline at Week 48, mean [1]: -13.11 pg/mL
- IL-6 change from baseline at Week 48, median [1]: 0.00 pg/mL
- MCP-1 baseline value, mean [1]: 139 pg/mL
- MCP-1 baseline value, median [1]: 122 pg/mL
- MCP-1 change from baseline at Week 24, mean [1]: -44 pg/mL
- MCP-1 change from baseline at Week 24, median [1]: -17 pg/mL
- MCP-1 change from baseline at Week 48, mean [1]: 4.2 pg/mL
- MCP-1 change from baseline at Week 48, median [1]: 33.6 pg/mL
- hs-CRP baseline value, mean [1]: 0.81 mg/dL
- hs-CRP baseline value, median [1]: 0.14 mg/dL
- hs-CRP change from baseline at Week 24, mean [1]: -0.46 mg/dL
- hs-CRP change from baseline at Week 24, median [1]: -0.01 mg/dL
- hs-CRP change from baseline at Week 48, mean [1]: -0.71 mg/dL
- hs-CRP change from baseline at Week 48, median [1]: -0.03 mg/dL
- sCD14 (original values) baseline value, mean [1]: 2e+06 pg/mL
- sCD14 (original values) baseline value, median [1]: 2.02e+06 pg/mL
- sCD14 (original values) change from baseline at Week 12, mean [1]: 90000 pg/mL
- sCD14 (original values) change from baseline at Week 12, median [1]: 180000 pg/mL
- sCD14 (original values) change from baseline at Week 24, mean [1]: 230000 pg/mL
- sCD14 (original values) change from baseline at Week 24, median [1]: 130000 pg/mL
- sCD14 (original values) change from baseline at Week 32, mean [1]: 480000 pg/mL
- sCD14 (original values) change from baseline at Week 32, median [1]: 170000 pg/mL
- sCD14 (original values) change from baseline at Week 48, mean [1]: 640000 pg/mL
- sCD14 (original values) change from baseline at Week 48, median [1]: 460000 pg/mL
- SAE: Suicidal ideation, n subjects ([2]; All CVC (N = 115), EFV (N = 28), through Week 48): 1
- Grade 3 or 4 AE: Suicidal ideation, n subjects ([2]; All CVC (N = 115), EFV (N = 28; Grade 4 event)): 1
- Deaths ([2]; EFV (N = 28)): 0 n
- Grade 3 or 4 AE: Blood creatine phosphokinase increased, n subjects ([2]; human, in vivo, 48 week): 0
- Grade 3 or 4 AE: Cardiac disorders, n subjects ([2]; human, in vivo, 48 week): 0
- Grade 3 or 4 AE: Depression, n subjects ([2]; human, in vivo, 48 week): 1
- Grade 3 or 4 AE: Ear and labyrinth disorders, n subjects ([2]; human, in vivo, 48 week): 1
- Grade 3 or 4 AE: Investigations, n subjects ([2]; human, in vivo, 48 week): 1
- Grade 3 or 4 AE: Palpitations, n subjects ([2]; human, in vivo, 48 week): 0
- Grade 3 or 4 AE: Psychiatric disorders, n subjects ([2]; human, in vivo, 48 week): 1
- Grade 3 or 4 AE: Stress, n subjects ([2]; human, in vivo, 48 week): 0
- Grade 3 or 4 AE: Weight decreased, n subjects ([2]; human, in vivo, 48 week): 1
- AE Abnormal dreams, n subjects ([2]; human, in vivo, 48 weeks): 6
- AE Depression, n subjects ([2]; human, in vivo, 48 weeks): 3
- AE Diarrhoea, n subjects ([2]; human, in vivo, 48 weeks): 3
- AE Dizziness, n subjects ([2]; human, in vivo, 48 weeks): 8
- AE Fatigue, n subjects ([2]; human, in vivo, 48 weeks): 1
- AE Headache, n subjects ([2]; human, in vivo, 48 weeks): 0
- AE Insomnia, n subjects ([2]; human, in vivo, 48 weeks): 4
- AE Lymphadenopathy, n subjects ([2]; human, in vivo, 48 weeks): 4
- AE Nasopharyngitis, n subjects ([2]; human, in vivo, 48 weeks): 1
- AE Nausea, n subjects ([2]; human, in vivo, 48 weeks): 6
- AE Rash, n subjects ([2]; human, in vivo, 48 weeks): 5
- AE Syphilis, n subjects ([2]; human, in vivo, 48 weeks): 3
- AE Upper respiratory tract infection, n subjects ([2]; human, in vivo, 48 weeks): 2
- AE leading to discontinuation: Abnormal dreams, n subjects ([2]; human, in vivo, 48 weeks): 1
- AE leading to discontinuation: Aggression, n subjects ([2]; human, in vivo, 48 weeks): 0
- AE leading to discontinuation: Anxiety, n subjects ([2]; human, in vivo, 48 weeks): 1
- AE leading to discontinuation: Depression, n subjects ([2]; human, in vivo, 48 weeks): 1
- AE leading to discontinuation: Dermatitis allergic, n subjects ([2]; human, in vivo, 48 weeks): 1
- AE leading to discontinuation: Disturbance in attention, n subjects ([2]; human, in vivo, 48 weeks): 1
- AE leading to discontinuation: Dizziness, n subjects ([2]; human, in vivo, 48 weeks): 2
- AE leading to discontinuation: Ear and labyrinth disorders, n subjects ([2]; human, in vivo, 48 weeks): 1
- AE leading to discontinuation: Eye disorders, n subjects ([2]; human, in vivo, 48 weeks): 1
- AE leading to discontinuation: Gastrointestinal disorders, n subjects ([2]; human, in vivo, 48 weeks): 1
- AE leading to discontinuation: General disorders and administration site conditions, n subjects ([2]; human, in vivo, 48 weeks): 0
- AE leading to discontinuation: Hypoaesthesia, n subjects ([2]; human, in vivo, 48 weeks): 1
- AE leading to discontinuation: Insomnia, n subjects ([2]; human, in vivo, 48 weeks): 3
- AE leading to discontinuation: Malaise, n subjects ([2]; human, in vivo, 48 weeks): 0
- AE leading to discontinuation: Musculoskeletal and connective tissue disorders, n subjects ([2]; human, in vivo, 48 weeks): 1
- AE leading to discontinuation: Musculoskeletal discomfort, n subjects ([2]; human, in vivo, 48 weeks): 1
- AE leading to discontinuation: Nausea, n subjects ([2]; human, in vivo, 48 weeks): 1
- AE leading to discontinuation: Nervous system disorders, n subjects ([2]; human, in vivo, 48 weeks): 4
- AE leading to discontinuation: Photophobia, n subjects ([2]; human, in vivo, 48 weeks): 1
- AE leading to discontinuation: Psychiatric disorders, n subjects ([2]; human, in vivo, 48 weeks): 3
- AE leading to discontinuation: Rash, n subjects ([2]; human, in vivo, 48 weeks): 1
- AE leading to discontinuation: Skin and subcutaneous tissue disorders, n subjects ([2]; human, in vivo, 48 weeks): 2
- AE leading to discontinuation: Tachyphrenia, n subjects ([2]; human, in vivo, 48 weeks): 1
- AE leading to discontinuation: Thinking abnormal, n subjects ([2]; human, in vivo, 48 weeks): 0
- AE leading to discontinuation: Tinnitus, n subjects ([2]; human, in vivo, 48 weeks): 1
- Any AE leading to discontinuation of study drug, n subjects ([2]; human, in vivo, 48 weeks): 6
- Any AE, n subjects ([2]; human, in vivo, 48 weeks): 27
- Any Grade 3 AE, n subjects ([2]; human, in vivo, 48 weeks): 3
- Any Grade 4 AE, n subjects ([2]; human, in vivo, 48 weeks): 1
- Any SAE, n subjects ([2]; human, in vivo, 48 weeks): 1
- Grade 3 or 4 AE: Abdominal pain, n subjects ([2]; human, in vivo, 48 weeks): 0
- Grade 3 or 4 AE: Blindness unilateral, n subjects ([2]; human, in vivo, 48 weeks): 0
- Grade 3 or 4 AE: Corneal infection, n subjects ([2]; human, in vivo, 48 weeks): 0
- Grade 3 or 4 AE: Dermatitis allergic, n subjects ([2]; human, in vivo, 48 weeks): 1
- Grade 3 or 4 AE: Eye disorders, n subjects ([2]; human, in vivo, 48 weeks): 0
- Grade 3 or 4 AE: Gastrointestinal disorders, n subjects ([2]; human, in vivo, 48 weeks): 0
- Grade 3 or 4 AE: General disorders and administration site conditions, n subjects ([2]; human, in vivo, 48 weeks): 0
- Grade 3 or 4 AE: Infections and infestations, n subjects ([2]; human, in vivo, 48 weeks): 0
- Grade 3 or 4 AE: Pyrexia, n subjects ([2]; human, in vivo, 48 weeks): 0
- Grade 3 or 4 AE: Skin and subcutaneous tissue disorders, n subjects ([2]; human, in vivo, 48 weeks): 1
- Grade 3 or 4 AE: Tinnitus, n subjects ([2]; human, in vivo, 48 weeks): 1
- SAE: Blindness unilateral, n subjects ([2]; human, in vivo, 48 weeks): 0
- SAE: Corneal infection, n subjects ([2]; human, in vivo, 48 weeks): 0
- SAE: Depression, n subjects ([2]; human, in vivo, 48 weeks): 1
- SAE: Eye disorders, n subjects ([2]; human, in vivo, 48 weeks): 0
- SAE: Gastroenteritis, n subjects ([2]; human, in vivo, 48 weeks): 0
- SAE: Infections and infestations, n subjects ([2]; human, in vivo, 48 weeks): 0
- SAE: Psychiatric disorders, n subjects ([2]; human, in vivo, 48 weeks): 1
- Subjects who experienced a Grade ≥3 AE ([2]; human, in vivo, 48 weeks): 15%
